Measurements published in patent US20220378707A1, “1-(((2S,3S,4S)-3-ETHYL-4-FLUORO-5-OXOPYRROLIDIN-2-YL)METHOXY)-7-METHOXYISOQUINOLINE-6-CARBOXAMIDE COMBINATIONS AND ORAL DOSAGE FORMS” (Pfizer Inc., priority 2019, published 2022).

Key:
[1] = test system: HUVEC and M1 macrophages+Zymosan (TLR2 ligand); assay: BioMAP IMphg system; type: cell-based, human; conditions: CD14+ derived macrophages; PF-06650833 19-500 nM
Description: The BioMAP systems consist of human primary cell-based systems designed to model different aspects of the human body in an in vitro format. The 12 systems tested characterized the test compounds across a broad set of systems modeling various human disease states. BioMAP systems were constructed with one or more primary cell types from healthy human donors, with stimuli (such as cytokines or growth factors) added to capture relevant signaling networks that naturally occur in human tissue or pathological conditions. […] Soluble factors from supernatants were quantified using either HTRF® detection, bead-based multiplex immunoassay or capture ELISA. Overt adverse effects of test agents on cell proliferation and viability (cytotoxicity) were detected by sulforhodamine B (SRB) staining, for adherent cells, and alamarBlue® reduction for cells in suspension. […] Each tested compound generated a signature BioMAP profile that was created from the changes in protein biomarker readouts within individual system environments. […] Each readout was measured quantitatively by immune-based methods that detected protein (e.g., ELISA) or functional assays that measured proliferation and viability. BioMAP readouts were diverse and included cell surface receptors, cytokines, chemokines, matrix molecules and enzymes. […]

[2] = 13 week toxicology study in rat: exposure interaction of tofacitinib and PF-06650833; type: in vivo

In the case of `CC[C@@H]1[C@H](F)C(=O)N[C@@H]1COc1nccc2cc(C(N)=O)c(OC)cc12` [PF-06650833, 1-(((2S,3S,4S)-3-Ethyl-4-fluoro-5-oxopyrrolidin-2-yl)methoxy)-7-methoxyisoquinoline-6-carboxamide], the “Activity in the IMphg system” value [1] is reported as “no activity was found”, the “Effects of 10 mg/kg tofacitinib on PF-06650833 exposure” value ([2]; female rats, 50 mg/kg PF-06650833) is reported as “no significant effects” and the “Effects of 10 mg/kg tofacitinib on PF-06650833 exposure” value ([2]; male rats, 100 mg/kg PF-06650833) is reported as “no significant effects”.
